Experimental findings from patent US12692235B2, “Fused ring compound and application thereof” (WUHAN LL SCIENCE AND TECHNOLOGY DEVELOPMENT CO., LTD., priority 2019, dated 2026) are described below.

Some results are limits rather than exact numbers.

The assay concerns the target T1, hP2X4 (human purinergic P2X receptor subtype 4) (Homo sapiens, UniProt Q99571).
T1 sequence (Q99571 1-404 isoform Q99571-2): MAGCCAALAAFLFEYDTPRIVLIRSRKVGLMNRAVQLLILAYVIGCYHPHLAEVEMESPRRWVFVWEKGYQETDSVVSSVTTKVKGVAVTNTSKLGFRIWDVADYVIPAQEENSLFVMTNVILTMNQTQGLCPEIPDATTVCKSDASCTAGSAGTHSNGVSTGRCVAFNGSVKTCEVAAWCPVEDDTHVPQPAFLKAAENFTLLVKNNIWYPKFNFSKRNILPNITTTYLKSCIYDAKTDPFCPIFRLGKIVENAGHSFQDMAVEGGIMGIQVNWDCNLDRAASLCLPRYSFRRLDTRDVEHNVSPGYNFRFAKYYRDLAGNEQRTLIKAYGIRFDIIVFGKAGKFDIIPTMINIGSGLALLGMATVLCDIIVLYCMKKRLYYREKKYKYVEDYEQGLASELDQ
Conditions: P2X4 IC50 (nM), HEK293 cells stably expressing hP2X4; agonist BZ-ATP 2.5 μM; FLIPR calcium.

A word on the IC50: it is the midpoint of a concentration-inhibition curve. As to `NS(=O)(=O)c1cc(NC(=O)Cc2ccccc2Cl)cc2nc(N3CCCC3)ccc12` [Compound 89, (2-chlorophenyl)-N-(2-(pyrrolidin-1-yl)-5-sulfamoylquinolin-7-yl)acetamide], the IC50 lay in the range of 200 to 5000 nM. In the case of `NS(=O)(=O)c1cc(NC(=O)Cc2ccccc2Cl)cc2c(OCCC3CC3)nccc12` [Compound 17, 2-(2-chlorophenyl)-N-(1-(2-cyclopropylethoxy)-5-sulfamoylisoquinolin-7-yl)acetamide] it was 50 to 200 nM. Under `CC(C)OC(=O)N1CCc2c(cc(NC(=O)Cc3ccccc3Cl)cc2S(N)(=O)=O)C1` [Compound 100, isopropyl-7-(2-(2-chlorophenyl)acetamido)-5-sulfamoyl-3,4-dihydroisoquinoline-2(1H)-carboxylate] stands 10 to 50 nM; under `NS(=O)(=O)c1cc(NC(=O)Cc2ccccc2Cl)cc2c1CCN(c1ccc(F)cc1)C2` [Compound 120, 2-(2-chlorophenyl)-N-(2-(4-fluorophenyl)-5-sulfamoyl-1,2,3,4-tetrahydroisoquinolin-7-yl)acetamide], 50 to 200 nM; under `NS(=O)(=O)c1cc(NC(=O)Cc2ccccc2Cl)cc2nc(Cl)ccc12` [Compound 57], 50 to 200 nM.

Turning to `NS(=O)(=O)c1cc(NC(=O)Cc2ccccc2Cl)cc2c(OC(F)(F)F)nccc12` [Compound 60, 2-(2-chlorophenyl)-N-(5-sulfamoyl-1-(trifluoromethoxy)isoquinolin-7-yl)acetamide], the IC50 is 50 to 200 nM.

On to `NS(=O)(=O)c1cc(NC(=O)Cc2ccccc2Cl)cc2nc(C3CC3)ccc12` [Compound 85, 2-(2-chlorophenyl)-N-(2-cyclopropyl-5-sulfamoylquinolin-7-yl)acetamide], for which the IC50 fell in the range of 200 to 5000 nM. Under `NS(=O)(=O)c1cc(NC(=O)Cc2ccccc2Cl)cc2c(F)cncc12` [Compound 47, 2-(2-chlorophenyl)-N-(4-fluoro-8-sulfamoylisoquinolin-6-yl)acetamide] stands 50 to 200 nM. In the case of `COc1nccc2c(S(N)(=O)=O)cc(NC(=O)Cc3c(Cl)ccc(F)c3O)cc12` [Compound 63, 2-(6-chloro-3-fluoro-2-hydroxyphenyl)-N-(1-methoxy-5-sulfamoylisoquinolin-7-yl)acetamide], the IC50 was in the range of 200 to 5000 nM. In the case of `NS(=O)(=O)c1cc(NC(=O)Cc2ccccc2Cl)cc2c(C(F)F)nccc12` [Compound 25, 2-(2-chlorophenyl)-N-(1-(difluoromethyl)-5-sulfamoylisoquinolin-7-yl)acetamide] it was under 10 nM. In the case of `NS(=O)(=O)c1cc(NC(=O)Cc2ccccc2Cl)cc2cnc(C(F)(F)F)cc12` [Compound 19, 2-(2-chlorophenyl)-N-(−5-sulfamoyl-3-(trifluoromethyl)isoquinolin-7-yl)acetamide] it was under 10 nM. As to `NS(=O)(=O)c1cc(NC(=O)Cc2ccccc2Cl)cc2c(Oc3ccc(F)cc3)nccc12` [Compound 31, 2-(2-chlorophenyl)-N-(1-(4-fluorophenoxy)-5-sulfamoylisoquinolin-7-yl)acetamide], the IC50 is 10 to 50 nM. In the case of `CC(C)Oc1nccc2c(S(N)(=O)=O)cc(NC(=O)Cc3ccccc3Cl)cc12` [Compound 9, 2-(2-chlorophenyl)-N-(1-isopropoxy-5-sulfamoylisoquinolin-7-yl)acetamide] it was 10 to 50 nM; in that of `COc1ccc(Oc2ccc3c(S(N)(=O)=O)cc(NC(=O)Cc4ccccc4Cl)cc3n2)cc1` [Compound 72, 2-(2-chlorophenyl)-N-(2-(4-methoxyphenoxy)-5-sulfamoylquinolin-7-yl)acetamide], 50 to 200 nM; in that of `Cc1ccc(Oc2nccc3c(S(N)(=O)=O)cc(NC(=O)Cc4ccccc4Cl)cc23)cc1` [Compound 34, 2-(2-chlorophenyl)-N-(5-sulfamoyl-1-(p-tolyloxy)isoquinolin-7-yl)acetamide], 10 to 50 nM. On to `NS(=O)(=O)c1cc(NC(=O)Cc2ccccc2Cl)cc2nc(-n3cccn3)ccc12` [Compound 49, N-(2-(1H-pyrazol-1-yl)-5-sulfamoylquinolin-7-yl)-2-(2-chlorophenyl)acetamide], for which the IC50 was in the range of 50 to 200 nM. Under `COc1cc2c(S(N)(=O)=O)cc(NC(=O)Cc3ccccc3Cl)cc2cn1` [Compound 75, 2-(2-chlorophenyl)-N-(3-methoxy-5-sulfamoylisoquinolin-7-yl)acetamide] stands 50 to 200 nM; under `NS(=O)(=O)c1cc(NC(=O)Cc2ccccc2Cl)cc2c1CCN(c1ccc(Cl)cn1)C2` [Compound 116, 2-(2-chlorophenyl)-N-(2-(5-chloropyridin-2-yl)-5-sulfamoyl-1,2,3,4-tetrahydroisoquinolin-7-yl)acetamide], 50 to 200 nM; under `COCCOc1ccc2c(S(N)(=O)=O)cc(NC(=O)Cc3ccccc3Cl)cc2n1` [Compound 74, 2-(2-chlorophenyl)-N-(2-(2-methoxyethoxy)-5-sulfamoylquinolin-7-yl)acetamide], 50 to 200 nM. In the case of `NS(=O)(=O)c1cc(NC(=O)Cc2ccccc2Cl)cc2c(OCc3ccc(F)cc3)nccc12` [Compound 32, 2-(2-chlorophenyl)-N-(1-((4-fluorobenzyl)oxo)-5-sulfamoylisoquinolin-7-yl)acetamide] it was 10 to 50 nM. For `NS(=O)(=O)c1cc(NC(=O)Cc2ccccc2Cl)cc2c(C(F)(F)F)nccc12` [Compound 29, 2-(2-chlorophenyl)-N-(-5-sulfamoyl-1-(trifluoromethyl)isoquinolin-7-yl)acetamide], the 50% inhibitory concentration (IC50) was in the range of 10 to 50 nM. Under `NS(=O)(=O)c1cc(NC(=O)Cc2ccccc2Cl)cc2c1CCN(C(=O)C(F)(F)F)C2` [Compound 114, 2-(2-chlorophenyl)-N-(5-sulfamoyl-2-(2,2,2-trifluoroacetyl)-1,2,3,4-tetrahydroisoquinolin-7-yl) acetamide] stands 10 to 50 nM; under `COc1nccc2c(S(N)(=O)=O)cc(NC(=O)Cc3c(Cl)cccc3Cl)cc12` [Compound 91, 2-(2,6-dichlorophenyl)-N-(1-methoxy-5-sulfamoylisoquinolin-7-yl)acetamide], 200 to 5000 nM; under `CN1CCN(c2cc3c(S(N)(=O)=O)cc(NC(=O)Cc4ccccc4Cl)cc3cn2)CC1` [Compound 79, 2-(2-chlorophenyl)-N-(3-(4-methylpiperazin-1-yl)-5-sulfamoylisoquinolin-7-yl)acetamide], 50 to 200 nM. In the case of `NS(=O)(=O)c1cc(NC(=O)Cc2ccccc2Cl)cc2c1CCN(Cc1ccccc1)C2` [Compound 110, N-(2-benzyl-5-sulfamoyl-1,2,3,4-tetrahydroisoquinolin-7-yl)-2-(2-chlorophenyl)acetamide] it was 200 to 5000 nM; in that of `NS(=O)(=O)c1cc(NC(=O)Cc2ccccc2Cl)cc2cnc(N3CCCCC3)cc12` [Compound 77, 2-(2-chlorophenyl)-N-(3-(piperidin-1-yl)-5-sulfamoylisoquinolin-7-yl)acetamide], 50 to 200 nM; in that of `NS(=O)(=O)c1cc(NC(=O)Cc2ccccc2Cl)cc2c1CCNC2` [Compound 98, 2-(2-chlorophenyl)-N-(5-sulfamoyl-1,2,3,4-tetrahydroisoquinolin-7-yl)acetamide], 200 to 5000 nM. Under `N#Cc1ccc2cc(NC(=O)Cc3ccccc3Cl)cc(S(N)(=O)=O)c2c1` [Compound 42, 2-(2-chlorophenyl)-N-(6-cyano-4-sulfamoylnaphthalen-2-yl)acetamide] stands 10 to 50 nM. As for `NS(=O)(=O)c1cc(NC(=O)Cc2ccccc2Cl)cc2cnccc12` [Compound 6], the IC50 lay within 10 to 50 nM.
